Source: ChEMBL document CHEMBL1201862, “PubChem BioAssay data set” (2004)
Activity calls are given as the source filed them.

What was measured:
[1] = test system: HEK293; assay: inhibitors of LMP1-driven NF-kB reporter, dose response, cell-based, HEK293, luciferase, cherry-pick (AID 588343); assay type: functional; conditions: Homo sapiens
[2] = test system: HEK293; assay: NOD1 signaling inhibitors, primary screen, cell-based, luminescence, uHTS (AID 1578); assay type: functional; conditions: Homo sapiens
[3] = test system: HEK293; assay: cells; assay type: functional, cell-based; conditions: Homo sapiens
[4] = test system: HEK293; assay: cells; assay type: functional, cell-based; conditions: Homo sapiens; remark: listed apart in the source
[5] = inhibitors of intracellular T. cruzi replication, confirmation, NIH3T3 host cells, beta-gal luminescence (AID 2044); assay type: functional, cell-based;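 also: intracellular parasites grown in NIH/3T3 mouse fibroblasts as host cells; luminescent beta-galactosidase reporter signal from transgenic T. cruzi replicating inside host cells; inhibitors lower the luminescence signal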
[6] = cytotoxicity toward NIH3T3 fibroblasts, dose response, counter-screen, cell-based, ATP luminescence, mouse fibroblasts (AID 2010); assay type: functional;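 also: cells exposed to compound for about 90 hours before reading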
[7] = biological target: T1, Short transient receptor potential channel 4 (Mus musculus, UniProt Q9QUQ5); assay: mouse TRPC4 channel activators, dose response, cell-based, HEK293 TRPC4/mu-opioid, Fluo-4 calcium (AID 434937); assay type: functional
T1 sequence (Q9QUQ5 whole entry): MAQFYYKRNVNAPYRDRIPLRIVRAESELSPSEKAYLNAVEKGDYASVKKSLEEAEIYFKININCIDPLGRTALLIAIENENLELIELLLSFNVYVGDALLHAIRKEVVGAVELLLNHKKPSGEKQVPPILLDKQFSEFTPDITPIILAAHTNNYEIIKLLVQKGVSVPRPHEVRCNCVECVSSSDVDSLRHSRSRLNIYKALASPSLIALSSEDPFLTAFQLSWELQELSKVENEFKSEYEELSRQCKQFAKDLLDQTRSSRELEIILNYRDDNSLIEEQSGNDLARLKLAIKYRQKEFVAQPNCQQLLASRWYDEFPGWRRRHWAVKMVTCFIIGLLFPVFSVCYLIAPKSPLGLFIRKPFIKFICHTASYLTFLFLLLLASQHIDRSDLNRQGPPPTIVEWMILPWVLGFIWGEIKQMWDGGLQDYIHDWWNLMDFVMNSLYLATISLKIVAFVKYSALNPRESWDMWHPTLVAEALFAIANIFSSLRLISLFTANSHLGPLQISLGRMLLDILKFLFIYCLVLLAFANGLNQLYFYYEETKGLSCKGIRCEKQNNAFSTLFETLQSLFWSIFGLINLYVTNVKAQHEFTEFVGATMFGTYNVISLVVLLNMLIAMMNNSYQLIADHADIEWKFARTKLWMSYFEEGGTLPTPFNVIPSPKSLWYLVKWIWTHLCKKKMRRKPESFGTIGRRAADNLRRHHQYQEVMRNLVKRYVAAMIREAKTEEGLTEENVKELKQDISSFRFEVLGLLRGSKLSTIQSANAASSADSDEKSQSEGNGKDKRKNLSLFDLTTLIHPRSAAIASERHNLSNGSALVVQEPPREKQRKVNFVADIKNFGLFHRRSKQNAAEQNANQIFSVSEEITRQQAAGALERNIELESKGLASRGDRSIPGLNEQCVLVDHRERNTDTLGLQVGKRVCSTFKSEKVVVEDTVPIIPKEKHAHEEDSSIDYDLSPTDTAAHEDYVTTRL

[8] = cytotoxicity in HEK-293T cells, dose response, cytotoxicity control for TCR NF-kB inhibitor project, luminescence, T-cell screen hits (AID 489026); assay type: functional, cell-based;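 also: cells exposed to compound about 14 hours before the viability readout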
[9] = cells
[10] = test system: Vero; assay: cells; assay type: functional, cell-based; conditions: Chlorocebus sabaeus
[11] = test system: Vero; assay: cells; assay type: functional; conditions: Chlorocebus sabaeus
[12] = Shn3 3'UTR reporter inhibitors, dose response, cell-based, Clone20 osteoblasts, firefly luciferase, cherry-picked (AID 624132); assay type: functional;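 also: firefly luciferase luminescence from reporter carrying the Shn3 3'UTR in osteoblasts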
[13] = HepG2 cell cytotoxicity, dose response, cytotoxicity control for Shn3 inhibitor project, CellTiter-Glo, cherry-picked (AID 624134); assay type: functional, cell-based
[14] = control 3'UTR Renilla luciferase suppression, dose response, counter-screen for Shn3 inhibitor project, cell-based, Clone20-Shn3RL, cherry-picked (AID 624133); assay type: functional
[15] = biological target: T2, Corticotropin-releasing factor receptor 2/Corticotropin-releasing factor-binding protein (Homo sapiens, UniProt P24387+Q13324); assay: Dose Response confirmation of uHTS hits for small molecule antagonists of the CRF-binding protein and CRF-R2 receptor complex.; assay type: functional; conditions: read-out: IC50_Mean
T2 sequence (Q13324 whole entry): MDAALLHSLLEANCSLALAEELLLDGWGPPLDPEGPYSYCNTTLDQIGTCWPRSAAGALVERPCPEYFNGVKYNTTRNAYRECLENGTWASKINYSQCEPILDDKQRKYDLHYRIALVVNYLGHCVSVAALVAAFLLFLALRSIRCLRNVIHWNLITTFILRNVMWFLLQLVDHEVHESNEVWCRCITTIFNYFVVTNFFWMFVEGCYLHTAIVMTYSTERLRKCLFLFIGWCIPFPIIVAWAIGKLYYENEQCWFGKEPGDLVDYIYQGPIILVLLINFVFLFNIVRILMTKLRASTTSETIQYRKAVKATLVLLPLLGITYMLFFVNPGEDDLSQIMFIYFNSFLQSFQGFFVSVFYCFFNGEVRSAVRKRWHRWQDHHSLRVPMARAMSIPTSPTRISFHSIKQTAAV
T2 sequence (P24387 whole entry): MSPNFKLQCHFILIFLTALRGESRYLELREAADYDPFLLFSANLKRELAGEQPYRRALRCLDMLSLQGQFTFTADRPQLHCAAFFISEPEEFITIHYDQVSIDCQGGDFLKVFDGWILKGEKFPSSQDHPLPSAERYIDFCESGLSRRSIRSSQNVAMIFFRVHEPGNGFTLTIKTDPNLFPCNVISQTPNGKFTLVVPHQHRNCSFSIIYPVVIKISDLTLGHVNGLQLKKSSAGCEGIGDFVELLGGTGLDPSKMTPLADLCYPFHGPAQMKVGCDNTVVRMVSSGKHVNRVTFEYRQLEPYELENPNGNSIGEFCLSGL

[16] = biological target: T2, Corticotropin-releasing factor receptor 2/Corticotropin-releasing factor-binding protein; assay: activators of CRF receptor 2 with binding protein – uHTS hits, confirmation (AID 602473); assay type: functional; conditions: read-out: EC50_Mean
[17] = CRF-BP/CRF-R2 complex antagonists, dose response, cell-based, uHTS hits, 384-well (AID 651639); assay type: functional, Homo sapiens; conditions: read-out: IC50_Mean
[18] = test system: Streptococcus sp. 'group A'; assay: growth inhibition of control SK(-) GAS strain, dose response, counter-screen for streptokinase expression inhibitor project, luminescence, kanamycin, BacTiterGlo, confirmation (AID 1900); assay type: functional, organism-based
[19] = test system: Streptococcus; assay: Group A Streptococcus viability loss, dose response, counter-screen for streptokinase expression inhibitor project, luminescence, BacTiterGlo (AID 1915); assay type: functional, organism-based;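 also: potency for reduction of bacterial viability or growth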
[20] = biological target: Glucose-6-phosphate 1-dehydrogenase (Homo sapiens, UniProt P11413); assay: human G6PD enzyme inhibitors, dose response, selectivity assay for P. falciparum G6PD inhibitor project, biochemical, fluorescence (AID 504792); assay type: functional
Glucose-6-phosphate 1-dehydrogenase, sequence (P11413 whole entry): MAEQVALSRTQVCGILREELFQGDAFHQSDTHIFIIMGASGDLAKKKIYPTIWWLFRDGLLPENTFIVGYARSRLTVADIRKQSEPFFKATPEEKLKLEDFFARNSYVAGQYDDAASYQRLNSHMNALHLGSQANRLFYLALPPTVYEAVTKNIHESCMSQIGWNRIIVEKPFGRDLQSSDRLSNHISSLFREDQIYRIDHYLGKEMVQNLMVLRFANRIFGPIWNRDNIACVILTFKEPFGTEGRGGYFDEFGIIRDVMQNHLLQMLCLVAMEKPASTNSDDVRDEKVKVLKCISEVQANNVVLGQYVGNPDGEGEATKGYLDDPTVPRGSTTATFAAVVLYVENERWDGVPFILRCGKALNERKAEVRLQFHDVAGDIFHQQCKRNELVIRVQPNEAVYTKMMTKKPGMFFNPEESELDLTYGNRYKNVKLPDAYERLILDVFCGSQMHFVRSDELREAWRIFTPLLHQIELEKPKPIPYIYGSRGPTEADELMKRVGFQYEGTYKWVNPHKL

[21] = biological target: T3, E3 ubiquitin-protein ligase XIAP (Homo sapiens, UniProt P98170); assay: Counter Screen using XIAP-Bir3 for Chemical Antagonists of Bir1/2 domains of IAP-family anti-apoptotic proteins. [Related pubchem assays (depositor defined):AID1018, AID1449, AID1514, AID1638, AID1749, AID1750, AID488957, AID488963]
T3 sequence (P98170 whole entry): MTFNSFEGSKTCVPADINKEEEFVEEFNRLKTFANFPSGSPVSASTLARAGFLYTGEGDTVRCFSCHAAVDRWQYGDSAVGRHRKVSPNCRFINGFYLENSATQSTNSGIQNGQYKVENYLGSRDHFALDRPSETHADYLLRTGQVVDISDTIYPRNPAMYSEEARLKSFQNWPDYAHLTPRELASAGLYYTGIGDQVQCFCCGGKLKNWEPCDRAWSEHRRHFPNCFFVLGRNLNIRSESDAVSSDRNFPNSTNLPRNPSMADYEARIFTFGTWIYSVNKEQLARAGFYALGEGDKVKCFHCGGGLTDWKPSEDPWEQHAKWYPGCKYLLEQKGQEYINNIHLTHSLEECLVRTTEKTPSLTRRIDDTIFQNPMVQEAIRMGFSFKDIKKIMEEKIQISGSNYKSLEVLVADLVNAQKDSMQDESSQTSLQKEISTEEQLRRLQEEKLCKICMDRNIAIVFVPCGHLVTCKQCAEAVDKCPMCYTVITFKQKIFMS

[22] = biological target: T3, E3 ubiquitin-protein ligase XIAP; assay: XIAP antagonists, biochemical, IAP family, fluorescence polarization (AID 1018); assay type: functional
[23] = Luminescence Cell-Based Dose Retest to Confirm Inhibitors of Cancer Stem Cells. [Related pubchem assays (depositor defined):AID2717, AID2721]; assay type: functional; conditions: Homo sapiens

SMILES: O=c1c2cnn(-c3ccccc3)c2nc(-c2cccs2)n1-c1ccc(Cl)cc1
- AC50 [1]: 1.78 µM (active)

SMILES: CCCC[n+]1c(C=C2C=Cc3ccccc3N2CC)sc2ccccc21
- EC50 [2]: 2.17 µM (active)
- IC50 [3]: 1.96 µM (active)
- IC50 [4]: 11.1 µM (active)
- EC50 [5]: < 0.1 µM (active)
- EC50 [6]: > 60 µM (not active)
- EC50 [7]: 7.5 µM (active)
- IC50 [8]: > 80 µM (inactive)
- EC50 [9]: 0.058 µM (active)

SMILES: CCC1CSC(Nc2ccc(C(=O)/C=C/c3ccc(OC)c(OC)c3)cc2)=N1 (stereo not given)
- IC50 [10]: 23.5 µM (active)
- CC50 [11]: 18.1 µM (active)
- AC50 [12]: 4.47 µM (active)
- AC50 [13]: 51.2 µM (active)
- AC50 [14]: 6.23 µM (active)

SMILES: CCCCOc1ccc(OC(=O)Nc2cc(Cl)ccc2OC)cc1
- IC50 [15]: < 0.368 µM (active)
- EC50 [16]: > 53 µM (inactive)
- IC50 [17]: > 20 µM (inactive)

SMILES: COc1ccc(C(=O)NNC(=S)NC(=O)/C=C/c2cccs2)cc1
- EC50 [18]: 0.802 µM (active)
- EC50 [19]: 4.2 µM (active)
- IC50 [10]: > 25 µM (active)
- CC50 [11]: > 25 µM (active)

SMILES: CCCCOc1ccc(Cc2nnc(S)n2N)cc1
- IC50 [20]: > 80 µM (inactive)

SMILES: O=C1CC(=C(c2ccccc2)c2ccccc2)C(=O)N1CCCCN1CCN(c2cccc(Cl)c2)CC1
- IC50 [21]: > 100 µM (inactive)
- IC50 [22]: > 100 µM (not active)
- AC50 [23]: 0.624 µM (active)
